According to ChEMBL document CHEMBL1131894, “N-phenylalkyl-substituted tropane analogs of boat conformation with high selectivity for the dopamine versus serotonin transporter” (Bioorg Med Chem Lett, 1999):

How the values were obtained:
[1] = target: T1, Sodium-dependent dopamine transporter (Rattus norvegicus, UniProt P23977); assay: Inhibition of [3H]dopamine uptake at striatal nerve endings by dopamine transporter
[2] = target: T1, Sodium-dependent dopamine transporter; assay: Displacement of [3H]mazindol from cocaine binding site on Dopamine transporter (DAT)
[3] = Selectivity of uptake of 5-HT to DA; type: functional
[4] = target: Sodium-dependent serotonin transporter (Rattus norvegicus, UniProt P31652); assay: Inhibition of [3H]5-HT uptake at striatal nerve endings by serotonin transporter
Chain of Sodium-dependent serotonin transporter (P31652 whole entry): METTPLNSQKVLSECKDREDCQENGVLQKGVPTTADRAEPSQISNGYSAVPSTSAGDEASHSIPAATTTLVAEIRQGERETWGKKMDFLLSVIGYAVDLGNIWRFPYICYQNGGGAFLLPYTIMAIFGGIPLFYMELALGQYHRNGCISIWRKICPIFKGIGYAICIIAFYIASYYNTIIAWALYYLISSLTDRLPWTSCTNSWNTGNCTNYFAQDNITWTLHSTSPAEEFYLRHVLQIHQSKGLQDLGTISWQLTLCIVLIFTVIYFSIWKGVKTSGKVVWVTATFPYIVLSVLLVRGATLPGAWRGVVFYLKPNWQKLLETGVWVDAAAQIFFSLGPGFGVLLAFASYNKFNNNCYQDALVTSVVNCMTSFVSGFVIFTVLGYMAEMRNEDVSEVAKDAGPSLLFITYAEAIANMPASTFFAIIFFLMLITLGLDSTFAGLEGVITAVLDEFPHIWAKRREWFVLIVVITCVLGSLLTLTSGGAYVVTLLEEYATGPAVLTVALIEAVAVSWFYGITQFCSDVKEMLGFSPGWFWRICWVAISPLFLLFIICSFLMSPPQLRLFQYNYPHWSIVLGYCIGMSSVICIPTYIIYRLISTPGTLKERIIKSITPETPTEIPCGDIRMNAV

T1 sequence (P23977 whole entry): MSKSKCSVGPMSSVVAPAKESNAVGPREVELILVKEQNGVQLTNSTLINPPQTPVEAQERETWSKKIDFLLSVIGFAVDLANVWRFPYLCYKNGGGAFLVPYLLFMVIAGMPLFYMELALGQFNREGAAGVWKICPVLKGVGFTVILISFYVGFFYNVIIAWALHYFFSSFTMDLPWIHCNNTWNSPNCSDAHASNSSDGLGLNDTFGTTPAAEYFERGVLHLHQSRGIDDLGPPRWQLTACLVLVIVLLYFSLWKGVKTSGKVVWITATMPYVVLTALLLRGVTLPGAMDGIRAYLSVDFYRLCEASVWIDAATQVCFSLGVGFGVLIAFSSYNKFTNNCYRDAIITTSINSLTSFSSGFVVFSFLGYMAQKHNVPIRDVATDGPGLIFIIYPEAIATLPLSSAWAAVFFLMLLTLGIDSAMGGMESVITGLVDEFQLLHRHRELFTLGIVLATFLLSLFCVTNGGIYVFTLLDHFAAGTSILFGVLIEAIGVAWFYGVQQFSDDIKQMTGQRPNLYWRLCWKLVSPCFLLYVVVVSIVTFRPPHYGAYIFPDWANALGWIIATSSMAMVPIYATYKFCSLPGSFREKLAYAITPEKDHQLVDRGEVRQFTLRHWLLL

| Structure (SMILES) | Ki [1] [µM] | Ki [2] [µM] | Selectivity [3] | Ki [4] [µM] |
| --- | --- | --- | --- | --- |
| Cc1ccc([C@@H]2C[C@H]3CCC(C2c2ccccc2)N3C)cc1 (some centres undefined) | 0.0046 | 0.006 | 26 | 0.12 |
| Fc1ccc(C2C3CCC(C[C@H]2c2ccc(F)cc2)N3)cc1 (some centres undefined) | 0.017 | 0.049 | 2.4 | 0.041 |
| Fc1ccc(C2C3CC[C@H](C[C@H]2c2ccc(F)cc2)N3CCCCc2ccccc2)cc1 (some centres undefined) | 0.21 | 0.0864 | 0.52 | 0.11 |
| Fc1ccc(C2C3CC[C@H](C[C@H]2c2ccc(F)cc2)N3Cc2ccccc2)cc1 (some centres undefined) | 0.17 | 0.26 | 2.9 | 0.49 |
| Fc1ccc(C2C3CC[C@H](C[C@H]2c2ccc(F)cc2)N3CCC(c2ccccc2)c2ccccc2)cc1 (some centres undefined) | > 10 | > 7 | – | > 20 |
| Fc1ccc(C2C3CC[C@H](C[C@H]2c2ccc(F)cc2)N3CCc2ccccc2)cc1 (some centres undefined) | 0.026 | 0.01 | > 50 | > 0.0013 |
| Fc1ccc(C2C3CC[C@H](C[C@H]2c2ccc(F)cc2)N3CCCc2ccccc2)cc1 (some centres undefined) | 0.043 | 0.016 | 14 | 0.608 |
| CN1C2CC[C@@H]1C[C@@H](c1ccc(F)cc1)C2c1ccc(F)cc1 (some centres undefined) | 0.014 | 0.031 | 33 | 0.46 |
| Cc1ccc([C@@H]2C[C@H]3CCC(C2c2ccccc2)N3CCc2ccccc2)cc1 (some centres undefined) | 0.0016 | 0.00095 | 113 | 0.18 |
| Fc1ccc(OCCN2C3CC[C@@H]2C[C@@H](c2ccc(F)cc2)C3c2ccc(F)cc2)cc1 (some centres undefined) | 0.027 | 0.022 | 34 | 0.928 |
